According to patent US11008323B2, “Substituted tricyclic 1,4-benzodiazepinone derivatives as allosteric modulators of group II metabotropic glutamate receptors” (Domain Therapeutics, priority 2015, dated 2021):

Experiments:
[1] = molecular target: T1, human mGluR3 (hmGluR3) (Homo sapiens, UniProt Q14832); assay: Human mGluR3 positive allosteric modulator evaluation using Ca++ functional assay; assay type: cell-based; conditions: hmGluR3 transiently over-expressed in HEK-293 cells; stimulated by EC50 glutamate concentration; intracellular Ca2+ (Fluo4AM, FLIPR Tetra)
T1 construct: expressed in transfected cells; host or cells: HEK-293 cells, transient co-transfection by electroporation
Method in brief: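 HEK-293 cells transiently co-expressing hmGluR3, a chimeric G protein and two glutamate transporters; Fluo4 calcium read on FLIPR. Compound alone for 10 min (agonist), then EC50 glutamate for 3 min (PAM); 20-point curves gave EC50, duplicate, two independent runs.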

T1 sequence (Q14832 23-879): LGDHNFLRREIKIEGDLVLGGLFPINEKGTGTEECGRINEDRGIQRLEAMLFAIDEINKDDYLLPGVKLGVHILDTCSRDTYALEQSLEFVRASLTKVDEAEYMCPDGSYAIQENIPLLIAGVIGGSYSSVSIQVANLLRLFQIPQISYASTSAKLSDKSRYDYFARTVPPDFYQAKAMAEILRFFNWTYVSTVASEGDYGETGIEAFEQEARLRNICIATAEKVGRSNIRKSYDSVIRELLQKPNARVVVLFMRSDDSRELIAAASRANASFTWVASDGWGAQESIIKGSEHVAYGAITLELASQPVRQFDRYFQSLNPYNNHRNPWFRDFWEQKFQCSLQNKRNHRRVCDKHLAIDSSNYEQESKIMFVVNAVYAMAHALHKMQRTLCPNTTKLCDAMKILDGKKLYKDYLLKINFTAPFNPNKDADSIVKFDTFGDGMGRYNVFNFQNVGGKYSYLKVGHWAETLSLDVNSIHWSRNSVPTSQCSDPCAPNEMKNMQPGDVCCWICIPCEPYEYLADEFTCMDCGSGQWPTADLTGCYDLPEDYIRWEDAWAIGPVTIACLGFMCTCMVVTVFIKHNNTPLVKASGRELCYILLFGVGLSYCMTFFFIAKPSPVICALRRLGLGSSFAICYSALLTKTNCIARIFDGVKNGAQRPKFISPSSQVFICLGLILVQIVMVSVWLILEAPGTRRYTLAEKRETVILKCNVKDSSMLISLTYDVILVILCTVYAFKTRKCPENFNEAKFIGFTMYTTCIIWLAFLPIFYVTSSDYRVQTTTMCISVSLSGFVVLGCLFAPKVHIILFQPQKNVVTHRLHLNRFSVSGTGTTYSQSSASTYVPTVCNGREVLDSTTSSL

Row | Compound | EC50 [1] [nM] | melting point [°C]
1 | Cc1ncoc1-c1ccc2c(c1)-n1cccc1C(=O)N(C)C21CC1 [Example 49, 5-Methyl-9-(4-methyl-oxazol-5-yl)-spiro[benzo[f]pyrrolo[1,2-a][1,4]diazepine-6,1′-cyclopropan]-4(5H)-one] | > 1000 | 120 to 128
2 | CN1C(=O)c2cccn2-c2cc(-c3cc[nH]c(=O)c3)ccc2C12CC2 [Example 68, 5-Methyl-9-(2-hydroxypyridin-4-yl)-spiro[benzo[f]pyrrolo[1,2-a][1,4]diazepine-6,1′-cyclopropan]-4(5H)-one] | > 1000 | 183 to 197
3 | COCN1C(=O)c2cccn2-c2cc(-c3cccnc3C)ccc2C12CC2 [Example 21, 5-Methoxymethyl-9-(2-methyl-pyridin-3-yl)-spiro[benzo[f]pyrrolo[1,2-a][1,4]diazepine-6,1′-cyclopropan]-4(5H)-one] | > 1000 | 138 to 142
4 | Cc1cccc2c1-n1cccc1C(=O)N(C)C21CC1 [Example 90, 5,10-Dimethyl-spiro[benzo[f]pyrrolo[1,2-a][1,4]diazepine-6,1′-cyclopropan]-4(5H)-one] | > 1000 | 200 to 207
5 | CN1C(=O)c2cccn2-c2cc(-c3cccc(F)n3)ccc2C12CC2 [Example 67, 5-Methyl-9-(6-fluoropyridin-2-yl)-spiro[benzo[f]pyrrolo[1,2-a][1,4]diazepine-6,1′-cyclopropan]-4(5H)-one] | 100 to 1000 | 106 to 117
6 | CN1C(=O)c2cccn2-c2cc(CCC#N)ccc2C12CC2 [Example 53, 5-Methyl-9-propionitrile-spiro[benzo[f]pyrrolo[1,2-a][1,4]diazepine-6,1′-cyclopropan]-4(5H)-one] | > 1000 | 59 to 64

The next lines start with the values.

Row | EC50 [1] [nM] | melting point [°C] | Compound
7 | 100 to 1000 | 160 to 165 | CN1C(=O)c2cccn2-c2cc(-c3cccnc3C(F)(F)F)ccc2C12CC2 [Example 36, 5-Methyl-9-(2-trifluoromethylpyridin-3-yl)-spiro[benzo[f]pyrrolo[1,2-a][1,4]diazepine-6,1′-cyclopropan]-4(5H)-one]
8 | 100 to 1000 | 158 to 162 | CN1C(=O)c2cccn2-c2cc(-c3cccnc3F)ccc2C12CC2 [Example 33, 5-Methyl-9-(2-fluoropyridin-3-yl)-spiro[benzo[f]pyrrolo[1,2-a][1,4]diazepine-6,1′-cyclopropan]-4(5H)-one]
9 | 100 to 1000 | 183 to 186 | COc1ncccc1-c1ccc2c(c1)-n1cc(-c3ccccc3)cc1C(=O)N(C)C21CC1 [Example 116, 5-Methyl-2-phenyl-9-(2-methoxy-pyridin-3-yl)-spiro[benzo[f]pyrrolo[1,2-a][1,4]diazepine-6,1′-cyclopropan]-4(5H)-one]
10 | 100 to 1000 | 197 to 201 | CN1C(=O)c2cccn2-c2cc(-c3ccnc(F)c3)ccc2C12CC2 [Example 34, 5-Methyl-9-(2-fluoropyridin-4-yl)-spiro[benzo[f]pyrrolo[1,2-a][1,4]diazepine-6,1′-cyclopropan]-4(5H)-one]
11 | 100 to 1000 | 88 to 97 | CN1C(=O)c2cccn2-c2cc(-c3ccc(C(F)(F)F)nc3)ccc2C12CC2 [Example 60, 5-Methyl-9-(6-trifluoromethylpyridin-3-yl)-spiro[benzo[f]pyrrolo[1,2-a][1,4]diazepine-6,1′-cyclopropan]-4(5H)-one]
12 | 100 to 1000 | > 250 | CN1C(=O)c2cc(-c3nnco3)cn2-c2cc(-c3cccnn3)ccc2C12CC2 [Example 193]
13 | < 100 | > 250 | CN1C(=O)c2cc(-c3ccccc3)cn2-c2cc(-c3cccc(C(=O)O)c3)ccc2C12CC2 [Example 94, 3-(5-methyl-4-oxo-2-phenyl-4,5-dihydrospiro[benzo[f]pyrrolo[1,2-a][1,4]diazepine-6,1′-cyclopropan]-9-yl)benzoic acid]
